Our source for the IC50 values is patent US20230031406A1, “COMPOUNDS AND COMPOSITIONS FOR TREATING CONDITIONS ASSOCIATED WITH NLRP ACTIVITY” (Novartis AG, priority 2018, published 2023).

The assay relates to PMA-differentiated THP-1 cells. Briefly: IL-1β production in PMA-differentiated THP-1 cells stimulated with gramicidin (hTHP-1 assay containing 2% fetal bovine serum; Procedures 1 and 2). The assay is classed as cell-based, human. The conditions noted are these: 2% fetal bovine serum. The gist of the method: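 PMA 20 ng/ml 16-18 h → trypsinise → 50,000 cells/well, RPMI/2% FBS; cpd 1 h (11-pt, 100–0.0017 μM; DMSO 0.37%); gramicidin 5 μM, 2 h; spin; supernatant IL-1β via HTRF.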

Setting [1] is: Table B3, hTHP-1 assay, class symbols, read-out: IC50.
The mark [2] stands for this setting: Homo sapiens, THP-1, Table B2, numeric bounds, read-out: hTHP-1 IC50.
[3] abbreviates: Table B1, class symbols, read-out: Average IC50 of compounds in hTHP-1 assay: hTHP-1 IC50.

Molecules are shown by their SMILES. Where two headings read alike, the source gives them in different places.

With `CC1(C)CCc2c1nc1c(c2NC(=O)N=S(N)(=O)c2nn(C(F)F)cc2F)CCC1` (single isomer, unassigned) [Example 722, (S) or (R)-1-(difluoromethyl)-N′-((3,3-dimethyl-1,2,3,5,6,7-hexahydrodicyclopenta[b,e]pyridin-8-yl)carbamoyl)-4-fluoro-1H-pyrazole-3-sulfonimidamide], under setting [1], the concentration for half-maximal inhibition (IC50) lay in the range of 1 to 5 µM.
Consider `Cc1c(C(F)F)nc2c(c1NC(=O)N=S(N)(=O)c1cnc(C(C)(C)O)s1)CCC2` (single isomer, unassigned) [Compound 647b, (S) or (R)-N′-((2-(difluoromethyl)-3-methyl-6,7-dihydro-5H-cyclopenta[b]pyridin-4-yl)carbamoyl)-2-(2-hydroxypropan-2-yl)thiazole-5-sulfonimidamide], for which the half-inhibitory concentration (IC50) under setting [2] was above 30 µM.
With `CC(C)(O)c1cc(C#N)cc(S(N)(=O)=NC(=O)Nc2c3c(nc4c2CCC4(C)C)CCC3)c1` (single isomer, unassigned) [Compound 674a, (S) or (R)-3-Cyano-N′-((3,3-methyl-1,2,3,5,6,7-hexahydrodicyclopenta [b,e]pyridin-8-yl)carbamoyl)-5-(2-hydroxypropan-2-yl)benzene-sulfonimidamide], under setting [2], the IC50 is above 30 µM.
Regarding `CCn1ccc(S(N)(=O)=NC(=O)Nc2c3c(nc(C4CC4)c2C2CC2)CCC3)n1` (centres unmarked) [Compound 726], the IC50 (Homo sapiens, THP-1, Table B2, class symbols, read-out: hTHP-1 IC50) was 1 to 5 µM.
Regarding `Cc1c(C(F)(F)F)nc(C(F)(F)F)c(C)c1NC(=O)N=S(N)(=O)c1cc(C(C)(C)O)cs1` (single isomer, unassigned) [Example 756, (S) or (R)-N′-((3,5-dimethyl-2,6-bis(trifluoromethyl)pyridin-4-yl)carbamoyl)-4-(2-hydroxypropan-2-yl)thiophene-2-sulfonimidamide], the 50% inhibitory concentration (IC50) (Table B4, class symbols, read-out: hTHP-1 IC50) lay within 5 to 30 µM.
With `CC(C)(O)c1csc(S(N)(=O)=NC(=O)Nc2c3c(nc4c2CCC4)CCC3)c1` (single isomer, unassigned) [Compound 155b, (S) or (R)-N′-((1,2,3,5,6,7-hexahydrodicyclo-penta[b,e]pyridin-8-yl)carbamoyl)-4-(2-hydroxypropan-2-yl)thiophene-2-sulfonimidamide], the IC50 under setting [3] is 1 to 5 µM.
In the case of `Cc1c(C2CC2)nc2c(c1NC(=O)N=S(N)(=O)c1nc(C(C)(C)O)cs1)CCC2` (single isomer, unassigned) [Compound 626a], the IC50 (Table B2, class symbols, read-out: hTHP-1 IC50) was in the range of 5 to 30 µM.
In the case of `C[C@@H]1CCc2c1nc1c(c2NC(=O)N=S(N)(=O)c2cnc([C@](C)(O)CO)s2)CCC1` (single isomer, unassigned) [Example 731], the IC50 (Homo sapiens, THP-1, Table B4, class symbols, read-out: hTHP-1 IC50) fell in the range of 0.04 to 0.2 µM.
Take `CCn1ccc(S(N)(=O)=NC(=O)Nc2c3c(nc4c2CCC42CC2)CCC3)n1` (single isomer, unassigned) [Example 687, (R) or (S)-1-Ethyl-N′-((1′,5′,6′,7′-tetrahydro-2′H-spiro[cyclopropane-1,3′-dicyclopenta[b,e]pyridin]-8′-yl)carbamoyl)-1H-pyrazole-3-sulfonimidamide]: under setting [1], the half-maximal inhibitory concentration (IC50) fell in the range of 0.2 to 1 µM.
As to `Cc1nc2c(c(NC(=O)N=S(N)(=O)c3cnc(C(C)(C)O)s3)c1C(C)C)CCC2` (single isomer, unassigned) [Compound 116a, (S) or (R)-2-(2-hydroxypropan-2-yl)-N′-((3-isopropyl-2-methyl-6,7-dihydro-5H-cyclopenta[b]pyridin-4-yl)carbamoyl)thiazole-5-sulfonimidamide], the IC50 (Homo sapiens, THP-1, Table B1, numeric bounds, read-out: Average IC50 of compounds in hTHP-1 assay: hTHP-1 IC50) is above 30 µM.
Take `CC1CCc2c1nc1c(c2NC(=O)N=S(N)(=O)c2cc(C(C)(C)O)cs2)CCC1C` (single isomer, unassigned) [Compound 131d, (S,R,R) or (S,S,S) or (S,R,S) and (S,S,R)-N′-((3,5-dimethyl-1,2,3,5,6,7-hexa-hydrodicyclopenta[b,e]pyridin-8-yl)carbamoyl)-4-(2-hydroxypropan-2-yl)thio-phene-2-sulfonimidamide]: under setting [3], the IC50 is 5 to 30 µM.

Usually IC50 stands for the point on the concentration scale where inhibition reaches its midpoint.
